These results are taken from US20180325909A1, “COMBINATION TREATMENT OF SPECIFIC FORMS OF EPILEPSY” (ZOGENIX INTERNATIONAL LIMITED, priority 2015, published 2018).

The test system of data set [1] is Dravet syndrome patients. To be noted: Chiron et al. 2011; cited from earlier work.
Data set [2] relates to homozygous scn1Lab−/− mutants. Type of data set: in vivo, Danio rerio. The following applies: for locomotor-reducing activity of functional analogs: at MTC, in most cases observed after short and long treatment; for activity in the Zebrafish model of epilepsy: following both acute and chronic application. How it is done:
(§1) Zebrafish embryos (Danio rerio) heterozygous for the scn1Lab mutation (scn1Lab+/−) were backcrossed with Tupfel longfin wildtype (WT scn1Lab+/+). Adult zebrafish were housed at 28.0° C., on a 14/10 hour light/dark cycle under standard aquaculture conditions. Fertilized eggs were collected via natural spawning. Anaesthetized fish (tricaine 0.02%) were fin-clipped and genotyped by PCR. After genotyping, samples were purified (MinElute PCR Purification Kit) and sequenced by LGC Genomics. Age-matched Tupfel longfin wildtype larvae were used as control group (WT scn1Lab+/+).
(§2) To evaluate the locomotor activity of homozygous scn1Lab−/− mutants and control WT scn1Lab+/+, zebrafish larvae were placed in a 96-well plate in 100 μL of embryo medium from 4 to 8 dpf. Each day the larvae were tracked in an automated tracking device (ZebraBox™ apparatus; Viewpoint, Lyon, France) for 10 min after 30 min habituation (100-second integration interval). All recordings were performed at the same time during daytime period. The total distance in large movements was recorded and quantified using ZebraLab™ software (Viewpoint, Lyon, France). Data were pooled together from at least three independent experiments with at least 24 larvae per condition.
(§3) Scn1Lab−/− mutants and WT scn1Lab+/+ larvae were arrayed in the same plate and treated at 6 days post fertilization (dpf) with fenfluramine (25 μM), functional analogs (at their MTC) or VHC in individual wells of a 96-well plate. After incubation at 28° C. on a 14/10 hour light/dark cycle and 30-min chamber habituation 6 and 7 dpf larvae were tracked for locomotor activity for 10 min (100-second integration interval) under dark conditions. An incubation time of 1.5 hours is further referred as short treatment (6 dpf). Furthermore these larvae were analyzed after more than 22 hours incubation (7 dpf), i.e. long treatment. The total locomotor activity was quantified using the parameter lardist and plotted in cm. Data were pooled together from two (5-HT1B-, 5-HT1F-, 5-HT3-, 5-HT4-, 5-HT5A-, 5-HT6-agonist and all antagonists except 5-HT1B- and 5-HT7-antagonists) or three (fenfluramine, 5-HT1A-, 5-HT1D-, 5-HT1E-, 5-HT2A-, 5-HT2B-, and 5-HT2C-agonist) independent experiments with at least 9 larvae per treatment condition.

Data set [3] has as its system WT scn1Lab+/+ larvae. The data set is described as follows: Locomotor activity of age-matched wildtype zebrafish larvae. Type of data set: in vivo, Danio rerio. To be noted: 'with exception of' means the compound did decrease wildtype activity. How it is done: as §1, §2
as §3, with “Data were pooled together from two (5-HT1B-, 5-HT1F-, 5-HT3-, 5-HT4-, 5-HT5A-, 5-HT6-agonist and all antagonists except 5-HT1B- and 5-HT7-antagonists) or three (fenfluramine, 5-HT1A-, 5-HT1D-, 5-HT1E-, 5-HT2A-, 5-HT2B-, and 5-HT2C-agonist) independent experiments with at least 9 larvae per treatment condition.” left out

Data set [4] deals with homozygous scn1Lab−/− mutants. The format is in vivo, Danio rerio. To be noted: for reduction of epileptiform activity (in words, compared with fenfluramine): long treatment at MTC (5-HT2B-agonist 3.125 μM), at least frequency and mean cumulative duration. As for the experimental part: Epileptiform activity was measured by open-field recordings in the zebrafish larval forebrain at 7 dpf. Homozygous scn1Lab−/− mutants and control WT scn1Lab+/+ were embedded in 2% low-melting-point agarose (Invitrogen) to position a glass electrode into the forebrain. […] Single recordings were performed for 10 min. […] Spontaneous epileptiform events were taken into account when the amplitude exceeded three times the background noise and lasted longer than 50 milliseconds (ms).
Epileptiform activity was measured by open-field recordings in the zebrafish larval forebrain at 7 dpf, as described above. […] Recordings of 7 dpf larvae, from at least 8 scn1Lab−/− mutant larvae were taken per experimental condition. […] Electrographic recordings were quantified for the different treatment conditions.

For data set [5], the target named is T1, 5-HT2C receptor (Homo sapiens, UniProt P28335).
T1 sequence (P28335 33-458): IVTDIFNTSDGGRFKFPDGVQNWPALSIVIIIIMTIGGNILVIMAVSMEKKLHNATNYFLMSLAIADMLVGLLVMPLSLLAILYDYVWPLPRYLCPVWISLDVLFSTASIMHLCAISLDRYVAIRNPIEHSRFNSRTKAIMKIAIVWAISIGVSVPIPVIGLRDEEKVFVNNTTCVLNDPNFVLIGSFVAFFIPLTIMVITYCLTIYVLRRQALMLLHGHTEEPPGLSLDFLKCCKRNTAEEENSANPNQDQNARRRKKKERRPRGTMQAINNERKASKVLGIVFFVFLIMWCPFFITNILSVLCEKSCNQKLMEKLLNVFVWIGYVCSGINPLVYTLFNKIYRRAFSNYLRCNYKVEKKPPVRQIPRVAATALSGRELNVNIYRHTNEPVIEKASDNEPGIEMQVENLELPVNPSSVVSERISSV
To be noted: cited from earlier work.

Data set [6] concerns scn1Lab−/− larvae. The data set is described as follows: Fenfluramine combined with 5-HT subtype antagonists, locomotor activity of scn1Lab-/- larvae. The format is in vivo, Danio rerio. To be noted: antagonist plus fenfluramine. How it is done:
as §3
No highly specific 5-HT1E-antagonist is currently available so it was impossible to explore this 5-HTsubtype receptor in the current assay (Leung, 2009).

Data set [7] relates to Dravet syndrome patients. To be noted: long term treatment with fenfluramine 0.12-0.90 mg/kg/day; Ceulemans et al. 2012; cited from earlier work.
Where [8] appears, read: long treatment, fenfluramine 25 μM, 7 dpf.

Entries after “also recorded” stand apart in the source; their conditions may differ. Read-outs that look alike come from different tables or passages of the source.

As for `C=CC(N)CCC(=O)O` (centres unmarked) [vigabatrin], in data set [1], the “patients with worsening of symptoms” value is recorded as around 60%.
On to `Nc1nnc(-c2cccc(Cl)c2Cl)c(N)n1` [lamotrigine], for which the “patients with worsening of symptoms” value in data set [1] was “up to 80%”.
With `Cc1nn(C)c(C)c1-c1cccc2c1CC[C@H](N(C)C)C2` [5-HT7-agonist, (2S)-(+)-5-(1,3,5-Trimethylpyrazol-4-yl)-2-(dimethylamino)tetralin], in data set [2], the “locomotor-reducing activity of functional analogs” value is on record as “locomotor-reducing activity” and the “activity in the Zebrafish model of epilepsy” value (shortened to “activity … of epilepsy”) was “high levels of activity”.
Take `CN1C[C@H](C(=O)N[C@]2(C)O[C@@]3(O)[C@@H]4CCCN4C(=O)[C@H](Cc4ccccc4)N3C2=O)C=C2c3cccc4[nH]cc(c34)C[C@H]21` [ergotamine, (6aR,9R)—N-((2R,5S,10aS,10bS)-5-benzyl-10b-hydroxy-2-methyl-3,6-dioxooctahydro-2H-oxazolo[3,2-a]pyrrolo[2,1-c]pyrazin-2-yl)-7-methyl-4,6,6a,7,8,9-hexahydroindolo[4,3-fg] quinoline-9-carboxamide]: the “locomotor activity in wildtype larvae” value in data set [3] is reported as “did not decrease the locomotor activity”. In data set [2], the “locomotor-reducing activity of functional analogs” value is on record as “interesting activity” and the “activity … of epilepsy” value is listed as “high levels of activity”. Besides, the “locomotor-reducing activity of functional analogs” value in data set [2] (listed as 5-HT5A-agonist) was “locomotor-reducing activity”.
As to `CN1CCC(c2c[nH]c3ccc(O)cc23)CC1` [5-HT1E-agonist, 1H-Indol-5-ol, 3-(1-methyl-4-piperidinyl)-], the “reduction of epileptiform activity (in words, compared with fenfluramine)” value (“reduction of epileptiform activity” below) in data set [4] (7 dpf) is listed as “not able to reduce epileptiform activity”. Also, the “locomotor activity in wildtype larvae” value in data set [3] is listed as “did not decrease the locomotor activity”. Besides, in data set [2], the “locomotor-reducing activity of functional analogs” value was “locomotor-reducing activity”.
Consider `O=C1Nc2ccc(Cl)cc2[C@@](C#CC2CC2)(C(F)(F)F)O1` [efavirenz, (4S)-6-chloro-4-(2-cyclopropylethynyl)-4-(trifluoromethyl)-1H-3,1-benzoxazin-2-one], for which the “inhibition of epileptiform activity in mutant fish embryos (Example 2)” value in data set [4] (tested at MTC) is on record as “potent inhibitors”. In addition, the “inhibition of locomotor activity in mutant fish embryos (Example 2)” value in data set [2] (tested at MTC) is “potent inhibitors”.
`C[C@H]1CNCCc2ccc(Cl)cc21.Cl` [lorcaserin, (1R)-8-chloro-1-methyl-2,3,4,5-tetrahydro-1H-3-benzazepine]: in data set [4] (7 dpf), the “reduction of epileptiform activity” value was “comparable effects”. Also, in data set [5], the “affinity for the 5-HT2C receptor vs. the 5-HT2B” value is given as 100 ×. Moreover, in data set [2], the “locomotor-reducing activity of functional analogs” value is recorded as “locomotor-reducing activity” and the “activity … of epilepsy” value is “high levels of activity”.
Take `O=C(c1ccc(F)cc1)C1CCN(CCn2c(=O)[nH]c3ccccc3c2=O)CC1` [5-HT2A-antagonist, ketaserine]: in data set [6] (long treatment, p<0.05), the “counteraction of the fenfluramine-elicited decrease in locomotor activity, long treatment” value is listed as “not after a long treatment”. Besides, in data set [6] (treatment time not stated), the “effect of antagonist on the fenfluramine-elicited decrease in large movements” value is “not seen”.
As to `NC(=O)N1c2ccccc2C=Cc2ccccc21` [carbamazepine], in data set [1], the “patients with worsening of symptoms” value was around 60%.
With `COc1ccc(CNC(=O)/C=C/c2ccc3[nH]cc(CCN(C)C)c3c2)cc1` [5-HT1D-agonist, 3-[3-(2-Dimethylaminoethyl)-1H-indol-5-yl]-N-(4-methoxybenzyl)acrylamide], the “reduction of epileptiform activity” value in data set [4] (7 dpf) is given as “comparable effects”. Besides, the “locomotor activity in wildtype larvae” value in data set [3] was “did not decrease the locomotor activity”. For the same compound, in data set [2], the “locomotor-reducing activity of functional analogs” value is listed as “locomotor-reducing activity” and the “activity … of epilepsy” value is on record as “high levels of activity”.
In the case of `CCNC(C)Cc1cccc(C(F)(F)F)c1` (centres unmarked) [fenfluramine], the “reduction of epileptiform activity” value in data set [4] (7 dpf) is given as “anti-epileptiform activity”. Also, in data set [4] (setting [8]), the “frequency of epileptiform events” value was found to be 1.7±0.4046 events/10-min recording, the “mean cumulative duration of epileptiform events” value was determined as 200.8±50.38 ms/10-min recording and the “mean duration of epileptiform events” value is listed as 85.11±18.28 ms/10-min recording. Besides, the “activity … of epilepsy” value in data set [2] is “high levels of activity”. In addition, in data set [2] (long treatment (22 h), fenfluramine 25 μM, 7 dpf, p<0.0001), the “locomotor activity after long treatment” value is listed as “lowers locomotor activity; also recorded: significantly decreased”. Further, in data set [7], the patients seizure-free was 70%.
In the case of `CC(N)Cc1c[nH]c2ccc(OCc3cccs3)cc12` (centres unmarked) [5-HT2B agonist], in data set [2], the “activity … of epilepsy” value is recorded as “did not show any activity”.
